Data on one compound can be found in patent publication US20240382497A1, “PROPHYLACTIC OR THERAPEUTIC AGENT FOR HYPOXIC INJURY, ISCHAEMIA-REPERFUSION INJURY AND INFLAMMATION, CELL PROTECTION AGENT FOR TRANSPLANTATION, AND BIO-PRESERVATION AGENT” (priority 2018, published 2024).

Experiment [1] deals with sepsis model mouse. The experiment can be described thus: Survival time in LPS sepsis model. In kind it is in vivo. As to conditions: about 80 mg/kg i.p., versus saline. The method, then:
(§1) Lipopolysaccharide (LPS) (0.6 mg/kg) was intraperitoneally administered to male Balb/c mice (about 2-3 months old) to generate a sepsis model. Immediately after the LPS administration, 200 μl (about 80 mg/kg) of a solution prepared by diluting various heterocyclic compounds and isothiocyanate compounds 100 times with saline was intraperitoneally administered. Blood samples were collected 60 min after LPS and compound administration, EDTA plasma was prepared, and the blood level of inflammatory cytokine TNF-a was measured by the ELISA method.
A sepsis model mouse was prepared by the same method as in Example 18. Immediately after the LPS administration, 200 μl (about 80 mg/kg) of a thiazoline-related compound (2MT) solution prepared by diluting 100 times with saline was intraperitoneally administered. The survival time of the mouse was measured when the thiazoline-related compound (2MT) was administered and when saline, as a control, was administered (saline).

The subject of experiment [2] is Male C57/BL6N mice. Put plainly: Body surface temperature on odor presentation (thermography). It counts as in vivo, mouse. As to conditions: filter paper scented with 271 μmol odor, mean of 20 min, versus no odor. The method, then:
An influence of a thiazoline-related compound and an odor molecule that induces learned fear on the body surface temperature was analyzed. Male C57/BL6N mice (about 3 months old) were anesthetized with pentobarbital (50 mg/kg, i.p.) 2-3 days before the test, and the back hair was depilated with depilatory cream. On the day of testing, each mouse was placed in a test cage and, after acclimation for 10 min, a filter paper scented with 271 μmol of a thiazoline-related compound (2-methyl-2-thiazoline; 2MT) or an odor molecule that induces learned fear (anisole) was presented in the test cage, and changes in the body surface temperature on the back were analyzed using a thermography camera (NEC Avio). The value of the body surface temperature change was calculated as the difference between the mean body surface temperature for 10min when water was presented and the mean body surface temperature for 20 min when each odor molecule was presented, and the change in the body surface temperature without odor was set to 0. […]
An influence of various thiazoline-related compounds on the body surface temperature was analyzed by a method similar to that in Example 1. As a control, an influence of an odor molecule that induces learned fear was also analyzed. […]

The test system of experiment [3] is Interleukin-1β (IL-1β). The experiment can be described thus: Blood IL-1β in LPS sepsis model (ELISA). It counts as in vivo, mouse. The settings on record: about 80 mg/kg i.p., 1 hr and 4 hr, versus saline. The method, then:
as §1
A sepsis model mouse was prepared by the same method as in Example 18. Immediately after the LPS administration, 200 μl (about 80 mg/kg) of a thiazoline-related compound (2MT) solution prepared by diluting 100 times with saline was intraperitoneally administered. Blood samples were collected 1 hr and 4 hr after administration of LPS and thiazoline-related compound (2MT), EDTA plasma was prepared, and the blood levels of inflammatory cytokine Interleukin-1β (IL-1β), and anti-inflammatory cytokine Interleukin-10 (IL-10) were measured by the ELISA method.
For orientation: ELISA stands for enzyme-linked immunosorbent assay.

In experiment [4] the test system is Trpa1 knockout and littermate hetero mice. Put plainly: Survival time in 4% oxygen of Trpa1 knockout mouse after odor presentation. It counts as in vivo. As to conditions: 271 μmol odor presented 10 min, versus saline. The method, then:
The thiazoline-related compound (2MT) was presented for 10 min to about 3-month-old male Trpa1 knockout and littermate hetero mice. Thereafter, the mice were placed in a tight box in which the oxygen concentration was adjusted to 4%, and the survival time of the mice was measured up to 30 min at maximum. The odor was presented by placing a filter paper scented with 271 μmol of 2MT in the breeding cage. As a control, an experiment presenting a filter paper dropped with saline was also performed (no odor).

For the compound `CC1=NCCS1` [2MT, 2-methyl-2-thiazoline], the “survival time in sepsis model” value in experiment [1] is reported as “extending the survival time”. Further, the “changes in the body surface temperature” value in experiment [2] is listed as “clear decrease in the body surface temperature”. In addition, in experiment [3], the “blood concentration of IL-1β” value was “decreased the blood concentration of inflammatory cytokine IL-1β”. Moreover, the “survival time in 4% oxygen” value in experiment [4] is “did not increase significantly”.
